The values below are quoted from earlier work in patent US20240016419A1, “ELECTROCHEMICAL GLUCOSE SENSING BY EQUILIBRIUM GLUCOSE BINDING TO GENETICALLY ENGINEERED GLUCOSE BINDING PROTEINS” (Cercacor Laboratories, Inc., priority 2022, published 2024).

In the case of “A213R: GGBP with Alanine residue at the 213 position changed to an Arginine residue”, the binding constant shift (A213R versus wild-type GGBP, from 0.2 μM to 1 mM) is listed as 5000 fold. For the same substance, the Kd (binding to glucose, read-out: binding constant) is 1000 µM.
